# Where two headings read alike, the source gives them in different places.
# Columns and labels:
# [1] = system: Aβ secretion; experiment: Secreted total Aβ ELISA in conditioned media of H4βAPP695 wt cells; type: cell-based, human; details: for inhibition at 10 µM / inhibition at 30 µM: Homo sapiens, 24 h, H4βAPP695 wt cells; for inhibition at 10 µM: read-out: Total Aβ (% decrease) 10 μM Mean; for inhibition at 30 µM: read-out: Total Aβ (% decrease) 30 μM Mean; for Aβ secretion inhibiting activity (structure activity summary): in words
# Procedure: (§1) H4βAPP695 wt cells, a human […] cell line stably transfected with a wtβAPP695 expression vector construct under the control of a CMV promoter (kindly provided by Dr. Chris Eckman from Mayo Clinic, Florida) were cultured as previously described. Twenty-four hours before drug treatment, the media was replaced with serum-free media. Cells were then incubated with drugs (dissolved in DMSO) or vehicle for 24 h for collection of conditioned media and cell lysates. For the PKC inhibitors experiment, three inhibitors were treated 30 min prior to drug challenge. Primary cortical neurons were prepared from embryonic day 18 APP and presenilin 1 (APPswe, PSEN1dE9) transgenic mice on the C57BL/6 genetic background (Jackson Laboratories, strain no. 5864) as previously described. THLE-3 human hepatoma cells (from ATCC) were plated in 24-well plates that were precoated with 10 μg/mL bovine serum albumin, 10 μg/mL fibronectin, and 30 μg/mL bovine type I collagen. The cells were grown in BEGM media (Clonetics) until confluent and treated with drugs at 20 μM for 24 h. This conditioned media was harvested, diluted 1:1 in serum-free medium, and incubated with H4βAPP695 wt cells for 24 h prior to analysis of secreted Aβ, which was compared to the effect of 10 μM drug treatments without prior incubation with the THLE-3 cells. Caco-2 cells (ATCC) were plated in 12-well plates with Transwell inserts (Costar) at 70000 cells per well and grown for 21 days. The media volume of the apical and basal chambers was 0.5 and 1.5 mL, respectively. Transepithelial resistance was measured in each well and found to be >160 Ω/cm^2. Drugs at 40 μM and 20 μg/mL of lucifer yellow were added in serum-free medium to the apical chamber. Four hours later, the basal chamber media was harvested and used to measure lucifer yellow fluorescence to confirm monolayer integrity as well as for treatment of H4βAPP695 wt cells for 24 h prior to analysis of secreted Aβ, which was compared to the effect of direct addition of 10 μM of the corresponding drug.
# [2] = system: THLE-3 human hepatoma cells; experiment: Drug activity persistence after incubation with THLE-3 hepatoma cells; type: in vitro ADME; details: for inhibition at 10 µM: Homo sapiens, THLE3, 24 h; for % remaining Activity: after 24 h incubation with hepatoma cells
# Procedure: as §1
# To screen for resistance to metabolism, 1 and eight noncytotoxic analogues with >50% Aβ reducing activity (compounds 27, 29, 48, 52, 53, 65, 73, and 76) were incubated at 20 μM for 24 h with or without THLE-3 human hepatoma cells.
# [3] = system: H4βAPP695 wt cells; experiment: Cytotoxicity by total cell protein content (BCA) of H4βAPP695 wt cells; details: cytotoxicity
# [4] = system: Caco-2 cells; experiment: Epithelial transcellular transport of drug activity through Caco-2 monolayers; type: in vitro ADME; details: for % theoretical activity: % of activity passing through Caco-2 monolayer; for inhibition at 10 µM / inhibition at up to 10 µM: Homo sapiens; for inhibition at 10 µM: Caco-2, 10 μM drug alone added directly to H4βAPP695 wt cells, read-out: transcellular transport No total Aβ (% decrease); for inhibition at up to 10 µM: Caco-2, 4 h, lower chamber media after 4 h on Caco-2 monolayer, 10 μM if in equilibrium, read-out: transcellular transport Yes total Aβ (% decrease)
# Procedure: as §1
# Monolayer integrity was confirmed by high levels of transcellular electrical resistance (>160 ohms/cm^2) and by transcellular impermeability to the fluorescent dye lucifer yellow. […] The concentration of each compound added to the upper chamber would lead to 10 μM in the lower chamber if equilibration was complete, and thus the activity of the lower chamber media was compared to the activity of 10 μM drug added directly to the H4βAPP695 wt cells. […] Compound 1 crossed the monolayer and the bottom chamber media led to a 27% reduction in Aβ production, yielding 38% of the theoretical activity. The compound with the most activity in the lower chamber was compound 48, which decreased Aβ production by 50%, with 71% of its theoretical activity. […] On the basis of the combined activity data from these last two studies, compound 48 was selected as the lead drug for in vivo study.
# [5] = system: Aβ secretion; experiment: PKC inhibitors experiment on Aβ secretion; type: cell-based, human; details: for effect on basal Aβ secretion: PKC inhibitor alone; for effect of PKC inhibitor on compound 1 inhibited Aβ secretion: inhibitor given 30 min prior to compound 1
# Procedure: as §1
# The tumor promoter phorbal myristate acetate is an activator of protein kinase C (PKC) that has been reported to activate α-secretase activity. Thus, we wanted to determine if protein kinase C inhibitors could block the effect of compound 1 on Aβ secretion.
# [6] = 10 μM on H4 cells, without preincubation with hepatoma cells, read-out: hepatoma incubation No total Aβ (% decrease)
# [7] = 20 μM preincubated 24 h with THLE-3 hepatoma cells, diluted to 10 μM on H4 cells, read-out: hepatoma incubation Yes total Aβ (% decrease)
% remaining Activity [2] [%],% theoretical activity [4] [%],melting point [°C],Compound,inhibition at 10 µM [1] [%],inhibition at 30 µM [1] [%],Aβ secretion inhibiting activity (structure activity summary) [1],"inhibition at 10 µM [2, 6] [%]","inhibition at 10 µM [2, 7] [%]",Cell protein (% decrease) 10 μM Mean [3] [%],Cell protein (% decrease) 30 μM Mean [3] [%],inhibition at 10 µM [4] [%],inhibition at up to 10 µM [4] [%],effect on basal Aβ secretion [5],effect of PKC inhibitor on compound 1 inhibited Aβ secretion [5]
41,,,"O=C(NCCSCc1cccc(O)c1)c1c(Cl)cccc1Cl [Compound 29, 2,6-dichloro-N-[2-(3-hydroxy-benzylsulfanyl)-ethyl]-benzamide]",> 50,67.7,good activity,56.4,23.1,6.3,6.6,,,,
52,60.1,96 to 97,"O=C(NCCSCc1ccccc1)c1c(Cl)cccc1Cl [Compound 65, N-(2-Benzylsulfanyl-ethyl)-2,6-dichloro-benzamide]",> 50,58.6,retained activity,51.6,27,−1.1,−0.7,51.6,31,,
65,41.8,110 to 112,"O=C(NCCSCc1ccccc1Cl)c1c(Cl)cccc1Cl [Compound 76, 2,6-Dichloro-N-[2-(2-chloro-benzylsulfanyl)-ethyl]-benzamide]",,80,retained activity,75.6,49,−0.5,−11,75.6,32,,
37,29.5,,"COc1cccc(CSCCNC(=O)c2c(Cl)cccc2Cl)c1 [Compound 27, 2,6-dichloro-N-[2-(3-methoxy-benzylsulfanyl)-ethyl]-benzamide]",> 50,73.9,good activity,60.6,22.2,8.4,13.2,60.6,17.9,,

# Further lines, the compound ahead of its results:
Compound,% remaining Activity [2] [%],% theoretical activity [4] [%],melting point [°C],inhibition at 10 µM [1] [%],inhibition at 30 µM [1] [%],Aβ secretion inhibiting activity (structure activity summary) [1],"inhibition at 10 µM [2, 6] [%]","inhibition at 10 µM [2, 7] [%]",Cell protein (% decrease) 10 μM Mean [3] [%],Cell protein (% decrease) 30 μM Mean [3] [%],inhibition at 10 µM [4] [%],inhibition at up to 10 µM [4] [%],effect on basal Aβ secretion [5],effect of PKC inhibitor on compound 1 inhibited Aβ secretion [5]
Calphostin C,,,,,,,,,,,,,no effect,no effect
"COc1cccc(CSCCNC(=O)c2c(Cl)cccc2Cl)c1OC [Compound 52, 2,6-Dichloro-N-[2-(2,3-dimethoxy-benzylsulfanyl)-ethyl]-benzamide]",,45.9,108 to 110,> 50,72.8,could be tolerated,57.8,1.9,−0.1,8.7,57.8,26.5,,
CN(C)CCCn1cc(C2=C(c3c[nH]c4ccccc34)C(=O)NC2=O)c2ccccc21 [Bisindolylmaleimide I],,,,,,,,,,,,,no effect,no effect
